Columns and labels:
Type in all cases: physicochemical
[1] = Solvent solubility evaluation of the degradable cross-linking agents; conditions: for Solvent solubility, Isopropanol / Solvent solubility, Methanol / Solvent solubility, Methylisobutyl ketone / Solvent solubility, N-methylpyrrolidone / Solvent solubility, Propylene glycol monomethyl ether: 0.5 mL solvent added to 2 mg, visual, room temperature, then heat gun; for Solvent solubility, overall assessment in words: summary over the solvents of Tables 1 and 2
Excerpt: The degree of dissolution was visually observed. When an undissolved portion remained at room temperature, the mixture was sufficiently heated with a heat gun and then visually observed again. The scoring was as follows: 3 points for those that completely dissolved at room temperature; 2 points for those in which an undissolved portion remained at room temperature but completely dissolved after heating; 1 point for those in which a slight amount of an undissolved portion remained after heating; and 0 points for those in which a large amount of an undissolved portion remained after heating. Here, the degradable cross-linking agents in liquid form were evaluated for compatibility with the solvents.

[2] = Degradation of the compound on adding sodium hypochlorite aqueous solution; conditions: 3% sodium hypochlorite aqueous solution added to the compound
[3] = Solubility of the degradable cross-linked product (cured film) in water / organic solvent
Description: The solution was applied onto a glass substrate to give a cured film thickness of 0.1 μm, and then dried and cured at 150° C. for 10 minutes to obtain a degradable cross-linked product.

[4] = Degradation of the degradable cross-linked product on immersion in oxidizing agent solution
Description: The method for degrading a degradable cross-linked product according to the present invention includes bringing the degradable cross-linked product into contact with an aqueous solution containing an oxidizing agent at 100° C. or lower.
The conditions for bringing the degradable cross-linked product into contact with the aqueous solution containing the oxidizing agent include a temperature of 100° C. or lower, preferably of 15° C. to 50° C. The conditions preferably include a duration of 60 minutes or shorter, more preferably 10 minutes or shorter. If necessary, the cross-linked product may be shaken or stirred during the reaction with the oxidizing agent. Non-limiting specific examples of the method for bringing the degradable cross-linked product into contact with the aqueous solution containing the oxidizing agent include immersing the degradable cross-linked product in the aqueous solution containing the oxidizing agent, or spraying or adding dropwise the aqueous solution containing the oxidizing agent onto the degradable cross-linked product.
An amount of 0.3 g of the compound of formula (A), 0.1 g of poly(methylhydrosiloxane), and 4.0 mg of a platinum catalyst (trade name: CAT-PL-50T, available from Shin-Etsu Chemical Co., Ltd.) were added to 40 g of dimethyl sulfoxide to obtain a thermosetting composition solution. The solution was applied onto a glass substrate to give a cured film thickness of 0.1 μm, and then dried and cured at 150° C. for 10 minutes to obtain a degradable cross-linked product.

[5] = cured film immersed in 3% sodium hypochlorite aqueous solution

Compound	Solvent solubility, Isopropanol [1]	Solvent solubility, Methanol [1]	Solvent solubility, Methylisobutyl ketone [1]	Solvent solubility, N-methylpyrrolidone [1]	Solvent solubility, Propylene glycol monomethyl ether [1]	Solvent solubility, overall assessment in words [1]	Degradation of the compound by oxidizing agent [2]	Solubility of the degradable cross-linked product made with the compound ([3]; in water)	Degradation of the degradable cross-linked product made with the compound [4, 5]	Solvent solubility, overall assessment in words ([1]; listed as Example 8)	Solubility of the degradable cross-linked product made with the compound ([3]; in isopropanol and water)	Degradation of the degradable cross-linked product made with the compound ([4]; cured film immersed in 2-fold dilution of a 3% sodium hypochlorite aqueous solution with isopropanol)	Solvent solubility, overall assessment in words ([1]; listed as Example 9)	Solubility of the degradable cross-linked product made with the compound ([3]; in THF and water)	Degradation of the degradable cross-linked product made with the compound ([4]; cured film immersed in 3-fold dilution of a 3% sodium hypochlorite aqueous solution with THE)
C=CCCC(=O)NNC(=O)CCCCCCCCC(=O)NNC(=O)OCC=C [Formula (A), reference compound]	0	0	0	0	0	poorly soluble in all the solvents	foaming and degradation of the compound were observed	insoluble	foaming and removal of the product from the substrate were observed						
C=CCNC(=O)NNC(=O)CCCCCCCCC(=O)NNC(=O)NCC=C [Formula (B)]	1	2	0	3	0		foaming and degradation of the compound were observed	insoluble	foaming and removal of the product from the substrate were observed						
C=CCOC(=O)NNC(=O)NCCCCCCNC(=O)NNC(=O)OCC=C [Formula (C)]	1	2	0	3	2		foaming and degradation of the compound were observed	insoluble	foaming and removal of the product from the substrate were observed						
C=CCOC(=O)NNC(=O)CCCCCCCCC(=O)NNC(=O)OCC=C [Formula (D)]	3	3	2	3	3		foaming and degradation of the compound were observed	insoluble	foaming and removal of the product from the substrate were observed						
C=CCOC(=O)NNC(=O)CCCO [Formula (G)]	3	3	2	3	3		foaming and degradation of the compound were observed	insoluble	foaming and removal of the product from the substrate were observed						
C=C(C)C(=O)OCCNC(=O)NNC(=O)c1cc(O)cc(O)c1 [Formula (I)]	0	3	0	3	0		foaming and degradation of the compound were observed			slightly less soluble than the compound of Example 3 but exhibited an acceptable level of solubility	insoluble	foaming and removal of the product from the substrate were observed			
O=C(CCS)NNC(=O)NCCCCCCNC(=O)N(CCCCCCNC(=O)NNC(=O)CCS)C(=O)NCCCCCCNC(=O)NNC(=O)CCS [Formula (J)]	1	1	0	1	0		foaming and degradation of the compound were observed	insoluble	foaming and removal of the product from the substrate were observed				slightly less soluble than the compound of Example 3 but exhibited an acceptable level of solubility		
C=CCOC(=O)NNC(=O)CCC(NC(=O)NNC(=O)CCCC(=O)NNC(=O)NC(CCC(=O)NNC(=O)OCC=C)C(=O)NNC(=O)OCC=C)C(=O)NNC(=O)OCC=C (stereo not drawn) [Formula (L)]	1	2	1	3	3		foaming and degradation of the compound were observed	insoluble	foaming and removal of the product from the substrate were observed						
O=C(CCCCCOC(=O)NNC(=O)OCCO)NNC(=O)c1cccc(C(=O)NNC(=O)CCCCCOC(=O)NNC(=O)OCCO)c1 [Formula (M)]	0	3	0	3	3		foaming and degradation of the compound were observed							insoluble	foaming and removal of the product from the substrate were observed

— patent US20260265184A1, “DEGRADABLE CROSSLINKING AGENT” (NAGASE CHEMTEX CORPORATION, priority 2023, published 2026)
